Measurements: PubChem BioAssay AID320 (DTP/NCI, 2004)
Several values for one entry are separate records, joined by “and”; a condition that tells them apart may be missing. Equal values may be shown once. Inconclusive results and toxic doses are left out.

Tested on: BDF1 mice, P329 reticulum cell sarcoma ip, survival T/C
Experiment: NCI In Vivo Anticancer Drug Screen. Data for tumor model P329 Reticulum Cell Sarcoma (intraperitoneal) in B6D2F1 (BDF1) mice
Details: endpoint: median survival time, higher = longer survival
Protocol: The antitumor activity of compounds was measured in mice bearing transplantable tumors. Survival or tumor size were measured and the results are expressed as the measurement made in the treated group (T) divided by the measurement made in the vehicle treated control group (C). The tumor model used in this assay is P329 Reticulum Cell Sarcoma (intraperitoneal) in B6D2F1 (BDF1) mice

[1] = dose: 1.0 mg/kg/injection, schedule: Q01DX010 (ip), vehicle: saline
[2] = dose: 80.0 mg/kg/injection, schedule: Q01DX010 (ip), vehicle: saline
[3] = dose: 16.0 mg/kg/injection, schedule: Q01DX010 (ip), vehicle: saline
[4] = dose: 5.0 mg/kg/injection, schedule: Q01DX010 (ip), vehicle: saline
[5] = dose: 10.0 mg/kg/injection, schedule: Q01DX010 (ip), vehicle: saline
[6] = dose: 20.0 mg/kg/injection, schedule: Q01DX010 (ip), vehicle: saline
[7] = dose: 40.0 mg/kg/injection, schedule: Q01DX010 (ip), vehicle: saline
[8] = dose: 8.0 mg/kg/injection, schedule: Q01DX010 (ip), vehicle: saline

CN(C)/N=N/c1nc[nH]c1C(N)=O
T/C (dose: 25.0 mg/kg/injection, schedule: Q01DX010 (ip), vehicle: saline): 121 % of control
T/C (dose: 100.0 mg/kg/injection, schedule: Q01DX010 (ip), vehicle: saline): 169 % of control
T/C (dose: 200.0 mg/kg/injection, schedule: Q01DX010 (ip), vehicle: saline): 100 % of control and 110 % of control

C1CN1c1nc(N2CC2)nc(N2CC2)n1
T/C (dose: 0.13 mg/kg/injection, schedule: Q01DX010 (ip), vehicle: saline): 96 % of control and 108 % of control
T/C (dose: 0.25 mg/kg/injection, schedule: Q01DX010 (ip), vehicle: saline): 115 % of control
T/C (dose: 0.5 mg/kg/injection, schedule: Q01DX010 (ip), vehicle: saline): 170 % of control
T/C [1]: 150 % of control

CC(=O)O[C@]1(C(C)=O)CC[C@H]2[C@@H]3C[C@H](C)C4=CC(=O)C=C[C@]4(C)[C@@]3(F)[C@@H](O)C[C@@]21C
T/C (dose: 12.5 mg/kg/injection, schedule: Q01DX010 (sc), vehicle: steriod suspending solution): 93 % of control
T/C (dose: 25.0 mg/kg/injection, schedule: Q01DX010 (sc), vehicle: steriod suspending solution): 93 % of control
T/C (dose: 50.0 mg/kg/injection, schedule: Q01DX010 (sc), vehicle: steriod suspending solution): 93 % of control

CN(C)c1ccc(Nc2c3ccccc3nc3ccccc23)cc1
T/C (dose: 36.0 mg/kg/injection, schedule: Q01DX010 (ip), vehicle: saline): 121 % of control
T/C [2]: 157 % of control
T/C (dose: 120.0 mg/kg/injection, schedule: Q01DX010 (ip), vehicle: saline): 153 % of control

CS(=O)(=O)OCCCl
T/C (dose: 9.4 mg/kg/injection, schedule: Q01DX010 (ip), vehicle: saline): 107 % of control
T/C (dose: 18.8 mg/kg/injection, schedule: Q01DX010 (ip), vehicle: saline): 96 % of control and 100 % of control
T/C (dose: 37.5 mg/kg/injection, schedule: Q01DX010 (ip), vehicle: saline): 92 % of control and 107 % of control
T/C (dose: 75.0 mg/kg/injection, schedule: Q01DX010 (ip), vehicle: saline): 92 % of control and 107 % of control

O=C(Nc1ccc(C2=NCCN2)cc1)c1cccc(C(=O)Nc2ccc(C3=NCCN3)cc2)c1
T/C [3]: 150 % of control and 176 % of control
T/C (dose: 32.0 mg/kg/injection, schedule: Q01DX010 (ip), vehicle: saline): 169 % of control and 180 % of control
T/C (dose: 64.0 mg/kg/injection, schedule: Q01DX010 (ip), vehicle: saline): 184 % of control and 196 % of control

COC(=O)[C@@H]1c2cc3c(c(O)c2[C@@H](OC2OC(C)C(OC)C(C)(OC)C2OC)C[C@]1(C)O)C(=O)c1c(O)cc2c(c1C3=O)O[C@H]1O[C@]2(C)[C@H](O)[C@@H](N(C)C)[C@@H]1O (some centres undefined)
T/C (dose: 62.5 micrograms/kg/injection, schedule: Q01DX010 (ip), vehicle: saline): 100 % of control
T/C (dose: 125.0 micrograms/kg/injection, schedule: Q01DX010 (ip), vehicle: saline): 93 % of control and 100 % of control
T/C (dose: 250.0 micrograms/kg/injection, schedule: Q01DX010 (ip), vehicle: saline): 90 % of control and 100 % of control
T/C (dose: 500.0 micrograms/kg/injection, schedule: Q01DX010 (ip), vehicle: saline): 93 % of control and 100 % of control

CN(C)c1ccc(/C=C/c2ccnc3ccccc23)cc1
T/C [4]: 100 % of control and 103 % of control
T/C [5]: 92 % of control and 107 % of control
T/C [6]: 96 % of control and 103 % of control
T/C [7]: 92 % of control and 100 % of control

O=c1[nH]c(=O)n(C2CC(O)C(CO)O2)cc1F (centres undefined)
T/C [4]: 103 % of control
T/C [5]: 110 % of control and 111 % of control
T/C [6]: 123 % of control
T/C [7]: 150 % of control
T/C [2]: 161 % of control

O=C(Nc1ccc(C2=NCCN2)cc1)c1ccc(C(=O)Nc2ccc(C3=NCCN3)cc2)c([N+](=O)[O-])c1
T/C (dose: 6.0 mg/kg/injection, schedule: Q01DX010 (ip), vehicle: saline): 153 % of control and 175 % of control
T/C [8]: 188 % of control and 212 % of control
T/C (dose: 18.0 mg/kg/injection, schedule: Q01DX010 (ip), vehicle: saline): 91 % of control

c1ccc(CNc2ncnc3[nH]ncc23)cc1
T/C [8]: 103 % of control and 115 % of control
T/C [3]: 107 % of control

CS(=O)(=O)OCCN(CCOS(C)(=O)=O)c1ccc(N=O)cc1
T/C [1]: 107 % of control
